Data reported in patent EP4772514A1, “MACROCYCLIC COMPOUNDS, PREPARATION METHOD THEREFOR, AND USE THEREOF” (Genfleet Therapeutics (Shanghai) Inc., priority 2023, dated 2025).

What was measured:
Assay type in all cases: cell-based
AsPC-1 cells = assay: 3D cell proliferation assay (CellTiter Glo-3D) in AsPC-1 cells; conditions: ASPC1, 120 h; AsPC-1, human pancreatic cancer cell strain, KRAS G12D mutation; 3D culture, 2% FBS, 5 days; read-out: AsPC-1 AP IC50
Text: MIA PaCa-2 cells were purchased from ATCC, Cat. No. CRL-1420; AsPC-1 cells were purchased from ATCC, Cat. No. CRL-1682; NCI-H441 cells were purchased from ATCC, Cat. No. HTB-174; NCI-H1975 cells were purchased from ATCC, Cat. No. CRL-5908; DMEM medium was purchased from Gibco, Cat. No. 11995-065; RPMI-1640 medium was purchased from Gibco, Cat. No. 11875-093; FBS was purchased from Gibco, Cat. No. 10099-141C; penicillin/streptomycin double-antibiotic solution (PS) was purchased from Gibco, Cat. No. 15140-122; Horse serum was purchased from Gibco, Cat. No. 16050130; trypsin (containing EDTA) was purchased from Gibco, Cat. No. 25200-072; DMSO was purchased from VWRAMRESCO, Cat. No. 0231-500ML; 384-well cell culture plates were purchased from Corning, Cat. No. 3830; white-bottomed, opaque 384-well assay plates were purchased from Corning, Cat. No. 3570; CellTiter Glo-3D kit was purchased from Promega, Cat. No. G9683; cell counter was purchased from CHEMOMETEC, model: NC-200; microplate reader was purchased from PerkinElmer, model: EnVision.
MIA PaCa-2, a human pancreatic cancer cell strain endogenously containing a KRAS^G12Cmutation, was cultured in a complete medium containing DMEM + 10% FBS + 2.5% Horse serum + 1% PS. AsPC-1, a human pancreatic cancer cell strain endogenously containing a KRAS^G12D mutation, was cultured in a complete medium containing RPMI-1640 + 10% FBS + 1% PS. NCI-H441 cells, a human lung cancer cell strain endogenously containing a KRAS^G12V mutation, were cultured in a complete medium containing RPMI-1640 + 10% FBS + 1% PS. NCI-H1975, a KRAS wild-type human lung cancer cell strain whose cell proliferation […], was cultured in a complete medium containing RPMI-1640 + 10% FBS + 1% PS.
The cells were digested with trypsin (containing EDTA), collected in their respective low-serum complete media containing 2% FBS (for MIA Paca-2 cell culture: DMEM + 2% FBS + 0.5% Horse serum + 1% PS), and counted. After the cell density was adjusted as required, MIA PaCa-2 cells (200 cells/well), AsPC-1 cells (800 cells/well), NCI-H441 cells (800 cells/well), or NCI-H1975 cells (400 cells/well) were seeded into a 384-well cell culture plate, with the volume of the medium in each well being 45 µL. The cell culture plate was incubated in an incubator at 37 °C with 5% CO2 overnight. A series of 3.16-fold gradient dilutions of a 1000× compound stock solution were prepared with DMSO, and then diluted 100-fold with the complete medium containing 2% FBS described above to give 10× compound stock solutions. On the day after cell seeding, 5 µL of the 10× compound stock solution was added to each cell culture well. As a result, the final concentration of the compound in the cell culture well became 1×, and the DMSO content in the well was 0.1%. In addition to the compound-treated wells described above, cell-containing DMSO control wells (with 5 µL of the complete medium containing 1% DMSO added to each well) and cell-free medium control wells (containing 50 µL of the complete medium with 2% FBS) were also set. The culture plate was incubated in an incubator at 37 °C with 5% CO2 for another 5 days, and then 30 µL of CellTiter-Glo working solution was added to each well. The mixture was well mixed, incubated for 30 min, left to stand at room temperature for 30 min, and then transferred to a white-bottomed, opaque 384-well assay plate at 40 µL/well. The chemiluminescence values (RLU) were measured using a microplate reader, and the cell proliferation inhibition rate for each well was calculated: IR(%) = (RLUDMSO - RLUcompound)/(RLUDMSO - RLUblank) × 100%, where RLUDMSO is the average RLU signal value from the DMSO control well samples, RLUblank is the average RLU signal value from the medium control well samples, and RLUcompound is the RLU signal value from the compound-treated well samples. […]

NCI-H441 cells = assay: 3D cell proliferation assay (CellTiter Glo-3D) in NCI-H441 cells; conditions: Homo sapiens, NCI-H441, 120 h, NCI-H441, human lung cancer cell strain, KRAS G12V mutation; 3D culture, 2% FBS, 5 days; read-out: H441 AP IC50
Procedure, shortened: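 After a 5-day exposure at 37 °C to 3.16-fold serial dilutions (final DMSO 0.1%) in 2% FBS RPMI-1640, ATP luminescence (CellTiter-Glo 3D) was read. Cells were AsPC-1 (KRAS G12D) or NCI-H441 (KRAS G12V), 800 per well; inhibition used DMSO and medium-only controls, with four-parameter curve fitting giving IC50.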

p-ERK [1] = assay: Cell p-ERK assay (HTRF, Advance ERK phospho-T202/Y204 kit) in NCI-H441 cells; conditions: Homo sapiens, NCI-H441, 3 h, NCI-H441, human non-small cell lung cancer cell strain, KRAS G12V mutation; 3 h compound incubation
Procedure, shortened: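 Phospho-ERK (T202/Y204) measured by HTRF in lysates of AsPC-1 (KRAS G12D) or NCI-H441 (KRAS G12V) cells after 3 h compound exposure at 37 °C in RPMI-1640 + 10% FBS, 0.1% DMSO. Inhibition normalised to DMSO and blank wells; IC50 by four-parameter fit.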

p-ERK [2] = assay: Cell p-ERK assay (HTRF, Advance ERK phospho-T202/Y204 kit) in AsPC-1 cells; conditions: ASPC1; AsPC-1, human pancreatic cancer cell strain, KRAS G12D mutation; 3 h compound incubation
Protocol: AsPC-1 cells were purchased from ATCC, Cat. No. CRL-1682; NCI-H441 cells were purchased from ATCC, Cat. No. HTB-174; RPMI-1640 medium was purchased from Gibco, Cat. No. 11875-093; FBS was purchased from Gibco, Cat. No. 10099-141C; penicillin/streptomycin double-antibiotic solution (PS) was purchased from Gibco, Cat. No. 15140-122; trypsin (containing EDTA) was purchased from Gibco, Cat. No. 25200-072; DMSO was purchased from VWRAMRESCO, Cat. No. 0231-500ML; 96-well cell culture plates were purchased from Corning, Cat. No. 3599; white-bottomed, opaque 96-well plates were purchased from Cisbio, Cat. No. 66PL96025; Advance ERK phospho-T202/Y204 kit was purchased from Cisbio, Cat. No. 64AERPEH; cell counter was purchased from CHEMOMETEC, model: NC-200; microplate reader was purchased from PerkinElmer, model: EnVision.
AsPC-1, a human pancreatic cancer cell strain endogenously containing a KRAS^G12D mutation, was cultured in a complete medium containing RPMI-1640 + 10% FBS + 1% PS. NCI-H441, a human non-small cell lung cancer cell strain endogenously containing a KRAS^G12V mutation, was cultured in a complete medium containing RPMI-1640 + 10% FBS + 1% PS.
The cells were digested with trypsin (containing EDTA), collected in their corresponding complete media, and counted. The density of the cell suspensions was adjusted with their corresponding complete media, and AsPC-1 cells (10000 cells/well) or NCI-H441 cells (20000 cells/well) were seeded into a 96-well cell culture plate, with the volume of the medium in each well being 80 µL. The cell culture plate was incubated in an incubator at 37 °C with 5% CO2 overnight. A series of 3.16-fold gradient dilutions of a 1000× compound stock solution were prepared with DMSO, and then diluted 200-fold with the complete medium described above to give 5× compound stock solutions. On the day after cell seeding, 20 µL of the 5× compound stock solution was added to each cell culture well. As a result, the final concentration of the compound in the cell culture well became 1×, and the DMSO content in the well was 0.1%. In addition to the compound-treated wells described above, cell-containing DMSO control wells were also set. A complete medium containing 0.5% DMSO was added at 20 µL/well. After the mixture was well mixed, the culture plate was incubated in the incubator at 37 °C with 5% CO2 for another 3 h. The medium was then removed from the culture wells, and 50 µL of cell lysis buffer (from Advance ERK phospho-T202/Y204 kit) was added to each well. The mixture was well mixed, incubated for 30 min, and then transferred to a white-bottomed, opaque 96-well assay plate at 16 µL/well, and separately, 16 µL of cell lysis buffer was added to additional wells (serving as blank wells) in the assay plate. After the transfer was completed, 4 µL of p-ERK HTRF antibody mixture (from Advance ERK phospho-T202/Y204 kit) was added to each well of the assay plate, followed by a 4-hour incubation. The HTRF signal values (RLU) were then measured using a microplate reader, and the inhibition rate of the compound against p-ERK levels was calculated as follows: IR(%) = (RLUDMSO - RLUcompound)/(RLUDMSO - RLUblank) × 100%, where RLUDMSO is the average HTRF signal value from the DMSO control well samples, RLU is the average HTRF signal value from the blank well samples, and RLUcompound is the HTRF signal value from the compound-treated well samples. Using an XLfit software, the IR(%) values were plotted against the logarithm of the compound concentrations, and the dose-response curves were fitted using the four-parameter method to calculate the IC50 values.

| IC50 (AsPC-1 cells) [µM] | IC50 (NCI-H441 cells) [µM] | IC50 (p-ERK [1]) [µM] | IC50 (p-ERK [2]) [µM] | Compound |
| --- | --- | --- | --- | --- |
| 0.00371 | 0.00398 | 0.00808 | 0.00819 | CCn1cc2c(c1-c1cc(N3CCN(C)CC3)cnc1[C@H](C)OC)CC(C)(C)COC(=O)[C@@H]1CCCN(N1)C(=O)[C@@H](NC(=O)[C@H]1[C@H](C)[C@@H]1C)Cc1nc(cs1)/C=C/2 (atropisomer, axis not shown) [Compound Z8A, (1r,2S,3R)-N-((4^2Z,8^3R,2E,6R)-1^1-ethyl-1^5-(2-((S)-1-methoxyethyl)-5-(4-methylpiperazin-1-yl)pyridin-3-yl)-12,12-dimethyl-7,9-dioxo-8^1,8^2,8^3,8^4,8^5,8^6-hexahydro-1^1H-10-oxa-4(4,2)-thiazola-8(1,3)-pyridazina-1(3,4)-pyrrolacyclotridecaphan-2-en-6-yl)-2,3-dimethylcyclopropane-1-carboxamide] |
| 0.0227 | 0.00763 | 0.00799 | 0.03 | CO[C@@H](C)c1ncc(C#CCN2CCS(=O)(=O)CC2)cc1-c1c2c(nn1C(C)C)/C=C/c1csc(n1)C[C@H](NC(=O)[C@H]1[C@H](C)[C@@H]1C)C(=O)N1CCC[C@H](N1)C(=O)OCC(C)(C)C2 (atropisomer, axis not shown) [Compound Z15A, (1r,2R,3S)-N-((4^2Z,8^3S,2E,6S)-1^5-(5-(3-(1,1-dioxidothiomorpholino)prop-1-yn-1-yl)-2-((S)-1-methoxyethyl)pyridin-3-yl)-1^1-isopropyl-12,12-dimethyl-7,9-dioxo-8^1,8^2,8^3,8^4,8^5 3^6-hexahydro-1^1H-10-oxa-4(4,2)-thiazola-8(1,3)-pyridazina-1(3,4)-pyrrolacyclotridecaphan-2-en-6-yl)-2,3-dimethylcyclopropane-1-carboxamide] |
| 0.374 | 0.0406 | 0.0404 | 0.23 | CCn1c(-c2cc(C#CCN3CCS(=O)(=O)CC3)cnc2[C@H](C)OC)c2c3cc(ccc31)NC(=O)OC[C@H](NC(=O)[C@H]1[C@H](C)[C@@H]1C)C(=O)N1CCC[C@H](N1)C(=O)OCC(C)(C)C2 (atropisomer, axis not shown; (Ra)) [Compound Z36, (1r,2R,3S)-N-((7^3S,9S)-1^2-(5-(3-(1,1-dioxidothiomorpholino)prop-1-yn-1-yl)-2-((S)-1-methoxyethyl)pyridin-3-yl)-1^1-ethyl-(Ra)-3,3-dimethyl-6,8,12-trioxo-7^1,7^2,7^3,7^4,7^5,7^6-hexahydro-1^1H-5,11-dioxa-13-aza-1(3,5)-indola-7(3,1)-pyridazinaocycloundecan-9-yl)-2,3-dimethylcyclopropane-1-carboxamide] |
| – | – | 0.177 | 0.506 | CO[C@@H](C)c1ncc(C#CCN2CCS(=O)(=O)CC2)cc1-c1c2c(nn1C(C)C)/C=C/c1csc(n1)C[C@H](NC(=O)CC1CC(CO)C1)C(=O)N1CCC[C@H](N1)C(=O)OCC(C)(C)C2 (stereo partly drawn) [Compound Z39, N-((4^2Z,8^3S,2E,6S)-1^5-(5-(3-(1,1-dioxidothiomorpholino)prop-1-yn-1-yl)-2-((S)-1-methoxyethyl)pyridin-3-yl)-1^1-isopropyl-12,12-dimethyl-7,9-dioxo-8^1,8^2,8^3,8^4,8^5,8^6-hexahydro-1^1H-10-oxa-4(4,2)-thiazola-8(1,3)-pyridazina-1(3,4)-pyrrolacyclotridecaphan-2-en-6-yl)-2-(3-(hydroxymethyl)cyclobutyl)acetamide] |
